Measured values from patent publication US12172999B2, “Polymorphs” (SYNGENTA PARTICIPATIONS AG, priority 2016, dated 2024).

Test: Stability of polymorphs: competitive slurry of both forms, polymorphic form determined by high throughput pXRD
Format: physicochemical
Method: Equal amounts of the polymorph of the invention and the Reference Form A polymorph were stirred in 33% methylcyclohexane/xylene for 4 days at a range of temperatures: 6° C., 35° C., 40° C. and 52° C. After the 4 days, the crystals were isolated and dried and their polymorphic form determined by high throughput pXRD. […] As such, formulations of the polymorph of the invention made and stored at up to 52° C. will be unlikely to show unwanted crystal growth.

Row | Structure (SMILES) | stable polymorphic form (equal amounts of both polymorphs stirred in 33% methylcyclohexane/xylene for 4 days at 6° C., 35° C., 40° C. and 52° C., crystals isolated, dried, pXRD) | characteristic pXRD reflections in the isolated crystals (equal amounts of both polymorphs stirred in 33% methylcyclohexane/xylene for 4 days, all temperatures (6° C., 35° C., 40° C., 52° C.))
1 | CCOC(=O)OC1=C(c2c(C)cc(Cl)cc2C)C(=O)N(C)C12CCN(OC)CC2 [polymorph of the invention] | the stable form over the temperature range studied | 
2 | CCOC(=O)OC1=C(c2c(C)cc(Cl)cc2C)C(=O)N(C)C12CCN(OC)CC2 [Reference Form A] |  | absent
